This is an account of results in ChEMBL document CHEMBL2086282, “2-Substituted 4,5-dihydrothiazole-4-carboxylic acids are novel inhibitors of metallo-β-lactamases” (Bioorg Med Chem Lett, 2012).

Bounds are passed on as bounds.

The target of assay [1] is T1, Beta-lactamase II (Bacillus anthracis, UniProt Q93T40).
T1 sequence (Q93T40 whole entry): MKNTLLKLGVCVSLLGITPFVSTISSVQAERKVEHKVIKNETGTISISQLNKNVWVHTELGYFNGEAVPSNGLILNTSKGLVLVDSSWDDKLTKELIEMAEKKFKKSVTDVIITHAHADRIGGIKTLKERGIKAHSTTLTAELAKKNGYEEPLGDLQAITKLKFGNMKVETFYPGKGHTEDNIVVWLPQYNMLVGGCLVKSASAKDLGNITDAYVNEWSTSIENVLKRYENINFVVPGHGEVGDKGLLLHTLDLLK

For a further assay, the target named is Beta-lactamase (Pseudomonas aeruginosa, UniProt Q79MP6).
Chain of Beta-lactamase (Q79MP6 whole entry): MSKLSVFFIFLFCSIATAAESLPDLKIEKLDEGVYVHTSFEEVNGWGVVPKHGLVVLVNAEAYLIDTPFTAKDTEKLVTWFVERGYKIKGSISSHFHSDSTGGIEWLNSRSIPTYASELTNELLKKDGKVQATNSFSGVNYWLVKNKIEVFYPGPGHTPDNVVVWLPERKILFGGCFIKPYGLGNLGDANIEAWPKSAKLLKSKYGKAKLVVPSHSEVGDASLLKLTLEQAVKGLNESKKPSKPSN
For assay [2], the target named is T1, Beta-lactamase II. This is another data set of the same source.

In general, IC50 refers to the point on the concentration scale where inhibition reaches its midpoint. As a reminder, the Ki is a dissociation constant, usually derived from enzyme kinetics or from competition with a known ligand. High values mean lower affinity, low ones higher affinity.

For the compound `O=C(O)[C@@H]1CSC(c2ccccc2O)=N1`, the IC50 against Beta-lactamase II [1] and against Beta-lactamase was more than 200 µM each time.

As for `O=C(O)[C@@H]1CSC(c2ccc(Br)cc2)=N1`, the IC50 against Beta-lactamase II [1] and at Beta-lactamase was more than 200 µM throughout.

Regarding `CC(C)(C)OC(=O)Nc1cccc(C2=N[C@H](C(=O)O)CS2)c1`, the IC50 against Beta-lactamase II [1] was 74.1 µM; against Beta-lactamase, more than 200 µM.

As to `C[C@H](CS)C(=O)N1CCC[C@H]1C(=O)O` [CAPTOPRIL], at Beta-lactamase II [1], the IC50 is 25.8 µM and the affinity corresponds to a Ki of 17.9 µM.

As to `O=C(O)[C@@H]1CSC(c2ccccc2)N1` (stereo partly drawn), the half-inhibitory concentration (IC50) at Beta-lactamase II [1] and against Beta-lactamase was more than 200 µM throughout.

Consider `Nc1cccc(C2=N[C@H](C(=O)O)CS2)c1`, for which the values for the IC50 against Beta-lactamase II [1] and on Beta-lactamase were 4.9 µM and 77 µM, respectively. Besides, on Beta-lactamase II [1], the Ki turned out to be 5.1 µM.

With `CC(C)(C)OC(=O)NCC1=N[C@H](C(=O)O)CS1`, the IC50 on Beta-lactamase II [1] and on Beta-lactamase was more than 200 µM in each case.

On to `O=C(O)[C@@H]1CSC(Cc2ccccc2)=N1`, for which the IC50 against Beta-lactamase II [1] and against Beta-lactamase was more than 200 µM throughout.

On to `COc1cccc(CC(=O)NCC2=N[C@H](C(=O)O)CS2)c1`, for which the IC50 on Beta-lactamase II [1] and against Beta-lactamase was more than 200 µM in each case.

On to `O=C(O)[C@@H]1CSC(Cc2ccccc2)N1` (stereo partly drawn), for which the IC50 at Beta-lactamase II [1] and against Beta-lactamase was more than 200 µM throughout.

With `O=C(O)c1csc(Cc2ccccc2)n1`, the IC50 against Beta-lactamase II [1] is more than 200 µM.

With `O=C(NCC1=N[C@H](C(=O)O)CS1)OCc1ccccc1`, the IC50 against Beta-lactamase II [1] and at Beta-lactamase was more than 200 µM throughout.

In the case of `CC(=O)Nc1cccc(C2=N[C@H](C(=O)O)CS2)c1`, the IC50 on Beta-lactamase II [1] and against Beta-lactamase was more than 200 µM throughout.

Turning to `O=C(O)CN(CCN(CC(=O)O)CC(=O)O)CC(=O)O` [EDETIC ACID], the IC50 against Beta-lactamase II [2] stood at 1060 µM.

Take `O=C(Cc1ccccc1)NCC1=N[C@H](C(=O)O)CS1`: the IC50 on Beta-lactamase II [1] and against Beta-lactamase was more than 200 µM throughout.

On to `O=C(O)c1csc(-c2ccccc2)n1`, for which the IC50 against Beta-lactamase II [1] and against Beta-lactamase was more than 200 µM each time.

`O=C(O)[C@@H]1CSC(c2ccc(Cl)cc2)=N1`: the IC50 against Beta-lactamase II [1] and against Beta-lactamase was more than 200 µM each time.
